The structures appear in SMILES notation. In brackets after ≈: the same amount, converted by molar mass.

A short description of series [1]: Antioxidant activity assessed as nitroblue tetrazolium superoxide radical scavenging activity by spectrophotometric analysis. The class given is functional.
A short description of series [2]: Antioxidant activity assessed as nitroblue tetrazolium superoxide radical scavenging activity incubated for 10 mins by spectrophotometric analysis. The class given is functional.
Series [3] in a line: Inhibition of COX in bovine seminal vesicle assessed as reduction in PGE2 production using arachidonic acid as substrate. The class given is tissue-based, Bos taurus.
Series [4] deals with Rattus norvegicus. Description: Antiinflammatory activity in Wistar rat model of carrageenan-induced paw edema assessed as reduction in paw thickness at 10 mg/kg,po and measured after 5 hrs. Further details: scale not given: the % may be the effect or the level left. The series is classed as functional.
Another series concerns Mus musculus. Kind of series: Antiinflammatory activity in TPA-induced ear edema ICR mouse model assessed as inhibition of ear inflammation at 1 ug, TOP for 30 mins followed by TPA addition and measured after 6 hrs. The settings on record: dose 1 µg, time 390 min, 6.5 h. The series is classed as functional.
The subject of series [5] is RAW264.7. Kind of series: Antiinflammatory activity in mouse RAW264.7 cells assessed as inhibition of LPS-induced NO production at 3 uM preincubated for 2 hrs followed by LPS stimulation and measured after 24 hrs by Griess method. The series is classed as functional. The settings on record: time 26 hrs.
For series [6], the system named is RAW264.7. Kind of series: Antiinflammatory activity in mouse RAW264.7 cells assessed as inhibition of LPS-induced NO production at 100 uM preincubated for 2 hrs followed by LPS stimulation and measured after 24 hrs by Griess method. The class given is functional. The settings on record: time 26 hrs. (In general: The Griess reaction detects nitrite, a stable product of nitric oxide.)

Series [7] has as its system RAW264.7. Description: Antiinflammatory activity in mouse RAW264.7 cells assessed as inhibition of LPS-induced TNFalpha production at 30 uM preincubated for 2 hrs followed by LPS stimulation and measured after 24 hrs by ELISA. The class given is functional. Particulars: time 26 hrs. (In general: ELISA stands for enzyme-linked immunosorbent assay.)
In series [8] the test system is RAW264.7. Kind of series: Antiinflammatory activity in mouse RAW264.7 cells assessed as inhibition of LPS-induced TNFalpha production at 10 uM preincubated for 2 hrs followed by LPS stimulation and measured after 24 hrs by ELISA. The class given is functional. The settings on record: time 26 hrs.
Series [9] deals with RAW264.7. Description: Antiinflammatory activity in mouse RAW264.7 cells assessed as inhibition of LPS-induced NO production at 30 uM preincubated for 2 hrs followed by LPS stimulation and measured after 24 hrs by Griess method. Particulars: time 26 hrs. The series is classed as functional.
Series [10] has as its system RAW264.7. Kind of series: Antiinflammatory activity in mouse RAW264.7 cells assessed as inhibition of LPS-induced IL-6 production at 3 uM preincubated for 2 hrs followed by LPS stimulation and measured after 24 hrs by ELISA. The settings on record: time 26 hrs. The class given is functional.
Series [11] concerns RAW264.7. Description: Antiinflammatory activity in mouse RAW264.7 cells assessed as inhibition of LPS-induced IL-6 production at 30 uM preincubated for 2 hrs followed by LPS stimulation and measured after 24 hrs by ELISA. The series is classed as functional. Particulars: time 26 hrs.
Series [12] concerns RAW264.7. Description: Antiinflammatory activity in mouse RAW264.7 cells assessed as inhibition of LPS-induced NO production at 10 uM preincubated for 2 hrs followed by LPS stimulation and measured after 24 hrs by Griess method. The series is classed as functional. Particulars: time 26 hrs.
The subject of series [13] is RAW264.7. Kind of series: Antiinflammatory activity in mouse RAW264.7 cells assessed as inhibition of LPS-induced TNFalpha production at 100 uM preincubated for 2 hrs followed by LPS stimulation and measured after 24 hrs by ELISA. The class given is functional. Particulars: time 26 hrs.
For series [14], the system named is RAW264.7. Kind of series: Antiinflammatory activity in mouse RAW264.7 cells assessed as inhibition of LPS-induced TNFalpha production at 3 uM preincubated for 2 hrs followed by LPS stimulation and measured after 24 hrs by ELISA. The class given is functional. Particulars: time 26 hrs.
Series [15] deals with RAW264.7. Description: Antiinflammatory activity in mouse RAW264.7 cells assessed as inhibition of LPS-induced IL-6 production at 10 uM preincubated for 2 hrs followed by LPS stimulation and measured after 24 hrs by ELISA. The class given is functional. Particulars: time 26 hrs.
Series [16] has as its system RAW264.7. Kind of series: Antiinflammatory activity in mouse RAW264.7 cells assessed as inhibition of LPS-induced IL-6 production at 100 uM preincubated for 2 hrs followed by LPS stimulation and measured after 24 hrs by ELISA. The series is classed as functional. Particulars: time 26 hrs.
For series [17], the system named is RAW264.7. Description: Antiinflammatory activity in mouse RAW264.7 cells assessed as inhibition of KLA-induced TNFalpha expression at 0.06 mg/ml and measured after 24 hrs by ELISA. The class given is functional.
The nature of series [18]: Antioxidant activity assessed as DPPH radical scavenging activity incubated for 30 mins by spectrophotometric analysis. The class given is functional. A general note: The DPPH test is a chemical assay of radical scavenging.
The subject of series [19] is RAW264.7. Kind of series: Antiinflammatory activity against mouse RAW264.7 cells assessed as inhibition of IFN-gamma and LPS-induced COX2 production preincubated for 2 hrs followed by IFN-gamma and LPS stimulation and measured after 16 hrs by spectrophotometric analysis. The class given is functional, cell-based.
In series [20] the test system is RAW264.7. Kind of series: Antiinflammatory activity in mouse RAW264.7 cells assessed as inhibition of LPS-induced NO production preincubated for 1 hrs followed by LPS stimulation and measured after 24 hrs by Griess reagent based analysis. The class given is functional, cell-based.
In series [21] the test system is RAW264.7. Kind of series: Antiinflammatory activity in mouse RAW264.7 cells assessed as inhibition of LPS-induced NO production preincubated for 0.5 hrs followed by LPS stimulation and measured after 24 hrs by Griess reagent based analysis. The class given is functional, cell-based.
Series [22] has as its system RAW264.7. Description: Antiinflammatory activity in mouse RAW264.7 cells assessed as inhibition of LPS-induced NO production incubated for 20 hrs by Griess method. The class given is functional, cell-based. Particulars: RAW264.7, 20 h.
Series [23] relates to RAW264.7. Kind of series: Antiinflammatory activity in mouse RAW264.7 cells assessed as inhibition of IFN-gamma and LPS-induced NO production incubated for 24 hrs by Griess assay. The series is classed as functional, cell-based. Particulars: RAW264.7, 24 h.
Series [24] concerns Rattus norvegicus. Kind of series: Antiinflammatory activity in rat model of ethyl phenylpropiolate-induced ear edema assessed as reduction in ear thickness administered topically and measured after 30 mins. Particulars: 0.5 h. The class given is functional.
Series [25] has as its system Rattus norvegicus. Description: Antiinflammatory activity in rat model of carrageenan-induced hind paw edema assessed as reduction in paw thickness at 100 mg/kg,ip 30mins before carrageenin exposure and measured after 3 hrs. The class given is functional. The arrangement: scale not given: the % may be the effect or the level left.
A short description of series [26]: Cytotoxicity against mouse RAW264.7 cells assessed as reduction in cell viability by MTT assay. The class given is toxicity, cell-based.
In series [27] the test system is J774.1. Kind of series: Cytotoxicity in mouse J774.1 cells assessed as reduction in cell viability at 100 microg/ml. The series is classed as toxicity, cell-based. The settings on record: at 100 µg/mL.
Series [28] concerns J774.1. Kind of series: Antiinflammatory activity in mouse J774.1 cells assessed as inhibition of LPS-induced NO production incubated for 48 hrs by Griess reagent based analysis. The series is classed as functional, cell-based. Particulars: Mus musculus, J774.1, 48 h.
Series [29] concerns J774.1. Kind of series: Antiinflammatory activity in mouse J774.1 cells assessed as inhibition of LPS-induced NO production at 100 microg/ml. The series is classed as functional.

As for `Oc1ncnc2[nH]ncc12` [ALLOPURINOL], the half-maximal inhibitory concentration (IC50) (usually the concentration at which inhibition is half-maximal) in series [1] was determined as 8 µM; in [2] it was 3.9 µM.

Consider `O=C1CCN(c2ccccc2)N1` [PHENIDONE], for which the IC50 in series [3] was 11.8 µM.

`O=C(CCc1ccccc1)C[C@H](O)CCc1ccccc1`: in the series with Rattus norvegicus [4], the Activity amounted to 6.9%. In addition, in the series with Mus musculus, the ID50 came out at 2.1 µmol.

For `COc1cc(CC[C@@H](C[C@H](O)[C@@H](O)Cc2ccc(O)cc2)O[C@@H]2OC[C@@H](O)[C@H](O)[C@H]2O)ccc1O`, the results for the inhibition at 3 µM with RAW264.7 [5], with RAW264.7 [10] and in the series with RAW264.7 [14] were 39%, 43% and 36%, respectively. The results for the inhibition at 100 µM with RAW264.7 [6], with RAW264.7 [13] and with RAW264.7 [16] were 39%, 36% and 43%, respectively. Moreover, the results for the inhibition at 30 µM in the series with RAW264.7 [7], in the series on RAW264.7 [9] and with RAW264.7 [11] were 36%, 39% and 43%, respectively. The inhibition (in general, the share of the control response that was lost under treatment) at 10 µM with RAW264.7 [8] is 36%; in the series on RAW264.7 [12] it was 39%; with RAW264.7 [15] it was 43%.

On to `O=C(CCc1ccccc1)C[C@@H](O)/C=C/c1ccccc1`, for which the inhibition at 60 µg/mL with RAW264.7 [17] was 37%.

As to `Oc1ccc(CCCC[C@@H](O)CCc2ccc(O)c(O)c2)cc1O`, the IC50 in [18] is 23.3 µM; in the series on RAW264.7 [19] it was 45.3 µg/mL (≈ 136 µM); in the series on RAW264.7 [20], 10.2 µM; with RAW264.7 [21] it was 20 µM; in the series on RAW264.7 [22] it was 5.2 µM; in series [2], 11.6 µM. In the series on RAW264.7 [23], the IC50 was determined as 28.4 µg/mL (≈ 85.4 µM).

Turning to `O=C(/C=C/C=C/c1ccccc1)CCc1ccccc1`, the ID50 in the series on Rattus norvegicus [24] worked out at 63 µg. In the series on Rattus norvegicus [25], the Activity amounted to 44%.

Turning to `O=C(/C=C/C=C/c1ccc(O)c(O)c1)CCc1ccc(O)c(O)c1`, the half-inhibitory concentration (IC50) was 36.4 µM in [26] and 8.6 µM with RAW264.7 [21].

Regarding `O=C(/C=C/c1ccc(O)c(O)c1)CC/C=C/c1ccc(O)c(O)c1`, the IC50 in series [26] was found to be 9 µM; in the series on RAW264.7 [21], 2.9 µM.

On to `COc1cc(CC[C@H](O)C[C@H](O)[C@@H](O)Cc2ccc(O)cc2)ccc1O`, for which the results for the inhibition at 3 µM in the series on RAW264.7 [5], in the series on RAW264.7 [10] and with RAW264.7 [14] were 43%, 57% and 39%, respectively. The inhibition at 100 µM in the series with RAW264.7 [6] came to 43%; in the series on RAW264.7 [13] it was 39%; with RAW264.7 [16], 57%. The inhibition at 30 µM in the series on RAW264.7 [7] came out at 39%; in the series with RAW264.7 [9], 43%; in the series on RAW264.7 [11], 57%. Further, the inhibition at 10 µM in the series with RAW264.7 [8] stood at 39%; with RAW264.7 [12] it was 43%; with RAW264.7 [15], 57%.

Consider `COc1cc(O)c([C@H](/C=C/C[C@@H](O)CCc2ccc(O)cc2)c2ccc(O)cc2)c2oc(-c3ccc(O)cc3)cc(=O)c12` (stereo in doubt; 110), for which the Activity with J774.1 [27] came to 85%. Moreover, the IC50 with J774.1 [28] was 84 µM. For the same compound, in the series with J774.1 [29], the inhibition at 100 µg/mL was determined as 90%.

Turning to `COc1cc(O)c([C@@H](/C=C/C[C@@H](O)CCc2ccc(O)cc2)c2ccc(O)cc2)c(O)c1C(=O)/C=C/c1ccc(O)cc1`, in the series on J774.1 [27], the Activity was 85%. Besides, in the series with J774.1 [28], the IC50 came out at 39 µM. In addition, the inhibition at 100 µg/mL in the series with J774.1 [29] turned out to be 90%.

These data come from ChEMBL document CHEMBL5233262, “Anti-inflammatory activity of naturally occuring diarylheptanoids - A review” (Bioorg Med Chem, 2021).
